This is an account of results in ChEMBL document CHEMBL2396565, “An epigenetic modifier enhances the production of anti-diabetic and anti-inflammatory sesquiterpenoids from Aspergillus sydowii” (Bioorg Med Chem, 2013).

pIC50: −log10 of the molar value. The source made the active and inactive calls. The calls are words filed in the database; no cut-off is given here.

Experiment [1] can be described thus: Antiinflammatory activity in human neutrophils assessed as inhibition of fMLP/CB-induced elastase release at 10 ug/mL after 5 mins by spectrophotometric analysis relative to control. Type of experiment: functional. The note with it: Neutrophil.
Experiment [2] in a line: Antiinflammatory activity in human neutrophils assessed as inhibition of fMLP/CB-induced superoxide generation at 10 ug/mL after 5 mins by spectrophotometric analysis relative to control. It is filed as functional. The note with it: Neutrophil.
Experiment [3] is described as follows: Antiinflammatory activity in human neutrophils assessed as inhibition of fMLP/CB-induced superoxide generation after 5 mins by spectrophotometric analysis. Type of experiment: functional, cell-based. The note with it: Neutrophil.
The nature of experiment [4]: Antiinflammatory activity in human neutrophils assessed as inhibition of fMLP/CB-induced elastase release after 5 mins by spectrophotometric analysis. To be noted: Neutrophil. It is filed as functional, cell-based.
In experiment [5] the test system is 3T3-L1. Description: Potentiation of insulin-stimulated glucose consumption in mouse 3T3L1 cells assessed as glucose concentration in culture medium at 30 ug/mL after 24 hrs (reference value: 427.4 mg/dL). It is filed as functional.
In experiment [6] the test system is 3T3-L1. The experiment is described as follows: Potentiation of insulin-stimulated glucose consumption in mouse 3T3L1 cells at 30 ug/mL after 24 hrs. It is filed as functional, cell-based.
Experiment [7] has as its system 3T3-L1. The experiment is described as follows: Inhibition of lipid accumulation in mouse 3T3L1 cells at 30 ug/mL after 8 days by Oil red O staining-based microscopic analysis relative to control. It is filed as functional. The note with it: 3T3-L1, 192 h.

Broadly, the inhibition is the relative decrease from the control value, in per cent. A word on the pIC50: it is the negative decadic logarithm of the IC50, by convention in mol/L. `C/C(=C\CCC(C)C)c1ccc(CO)cc1O`: the inhibition at 10 µg/mL came out at 84.3% in experiment [1] and 97.8% in experiment [2]. In addition, the pIC50 in experiment [3] was 5.21; in experiment [4], 5.06.
`COC(=O)[C@@H]1c2c(oc3cc(CO)cc(O)c3c2=O)C=C[C@H]1O`: the results for the inhibition at 10 µg/mL in experiment [1] and in experiment [2] were 98.9% and 102%, respectively. In addition, the figures for the pIC50 in experiment [3] and in experiment [4] were 5.22 and 5.18, respectively.
For orientation: IC50 means the concentration that inhibits the measured activity by half. Regarding `CC(C)CCC[C@](C)(O)c1ccc(C(=O)O)cc1O`, the inhibition at 10 µg/mL in experiment [1] was determined as 2.56%; in experiment [2] it was 60.2%. Besides, in experiment [3], the pIC50 was 4.56. Further, the IC50 in experiment [4] was above 10 µg/mL. Moreover, the Activity in the experiment on 3T3-L1 [5] amounted to 381.4 mg/dL.
Take `C/C(=C\CCC(C)CO)c1ccc(CO)cc1O` (stereo unspecified): the inhibition at 10 µg/mL in experiment [1] came to 6.68%; in experiment [2], 71.7%. Further, the outcome in the experiment with 3T3-L1 [6] was Active. Moreover, the pIC50 in experiment [3] was 4.67. In addition, the IC50 in experiment [4] is above 10 µg/mL.
On the same counts, the results for `CO[C@@](C)(CCCC(C)C)c1ccc(CO)cc1O` [(7S)-(+)-7-O-METHYLSYDONOL] are 29.8%, 69%, “Active”, 4.86 and above 10 µg/mL.
For the compound `CC(C)CCC[C@](C)(O)c1ccc(CO)cc1O` [(S)-(+)-SYDONOL], the inhibition at 10 µg/mL is 65.3% in experiment [1] and 87% in experiment [2]. Also, the inhibition at 30 µg/mL with 3T3-L1 [7] was at most 48%. In the experiment with 3T3-L1 [6], the result was Active. Also, the negative logarithm of the IC50 (pIC50) was 5.28 in experiment [3] and 4.79 in experiment [4]. Moreover, the Activity with 3T3-L1 [5] was determined as 324.6 mg/dL.
Regarding `Cc1cc(O)cc(Oc2cc(C)cc(O)c2)c1` [DIORCINOL], the inhibition at 10 µg/mL in experiment [1] amounted to 39.8%; in experiment [2], 92%. Besides, in experiment [3], the pIC50 was 4.91. In addition, the IC50 in experiment [4] is above 10 µg/mL.
Turning to `CNC(=O)c1cc(Oc2ccc(NC(=O)Nc3ccc(Cl)c(C(F)(F)F)c3)cc2)ccn1` [SORAFENIB], the inhibition at 10 µg/mL in experiment [1] worked out at 83%; in experiment [2], 70.9%. Besides, the pIC50 in experiment [3] was 5.90; in experiment [4], 5.25.
For the compound `COC(=O)c1cccc2oc3cc(CO)cc(O)c3c(=O)c12` [SYDOWININ A], the inhibition at 10 µg/mL was 28.7% in experiment [1] and 38.1% in experiment [2]. The half-maximal inhibitory concentration (IC50) in experiment [3] and in experiment [4] was above 10 µg/mL throughout.
Consider `COC(=O)c1c(O)ccc2oc3cc(CO)cc(O)c3c(=O)c12` [SYDOWININ B], for which the inhibition at 10 µg/mL in experiment [1] was 85%; in experiment [2], 66.2%. Further, the figures for the pIC50 in experiment [3] and in experiment [4] were 4.67 and 4.90, respectively.
